Assay results as given in patent publication US20240067693A1, “POLYPEPTIDES AND USES THEREOF” (MEDIMMUNE LIMITED, priority 2020, published 2024).
Numbered stars: 1 amine (or outer) side, 2 acyl side, 3 side chain; on linkers, the order of the positions; unused ones are H or OH. Bridge positions count the residues as written; N and C are the ends. Square brackets hold non-standard residues; d marks the D form. Side chains are listed from the residue outwards. Peptide text beside a SMILES is read from it. * marks the point of attachment. C20 diacid = O=C(O)CCCCCCCCCCCCCCCCCCC(=O)*; C18 diacid = O=C(O)CCCCCCCCCCCCCCCCC(=O)*; γGlu = O=C(O)[C@H](CCC(=O)[*:2])N[*:1]; Aib = CC(C)(N)C(=O)O

Key:
[1] = test system: lean rats; assay: Rat acute food intake study; type: in vivo; settings: lean male Sprague Dawley rats, 20 nmol/kg subcutaneously
Protocol: Male Sprague Dawley rats were obtained from Taconic Denmark, ApS at approximately 7 weeks of age. Rats were implanted with a microchip for identification, housed 4/cage with enrichment, free access to food and water, and allowed one week acclimatisation while non-invasive characterization was performed. Rats were on a 12:12 light:dark cycle that switches at 1pm:1am. Food intake was monitored via the HM2 system (Lafayette Instrument) that allows for monitoring in a home cage. As each rat enters an access tunnel to feed, an IR beam is broken, and the implanted microchip is read. Resulting changes to food weight is then assigned to the specific animal. Social order has shown no impact to overall feeding patterns and amounts.
Rats were sorted into groups based on Day -1 body weight and 24-hour accumulated food intake (n=7 per group). On Day 0 rats were weighed, then fasted for 6 hours. Thirty (30) minutes prior to the reintroduction of food, rats were dosed subcutaneously (5 mL/kg) with 20 nmol/kg of test compound or 60 nmol/kg peptide 1 (pramlintide) diluted in an appropriate vehicle, after which food was returned, and lights went out. Automated food intake was monitored for the following 3 days, and rats were weighed once per day.
Food intake per rat was batched into 1-hour intervals and integrated into Gubra's GubraView data management system. Discrete food intake data was exported into MS Excel from which cumulative food intake data was generated. Cumulative food intake data was then transposed into GraphPad Prism (v8.0.1) for analysis of dark period feeding

[2] = target: T1, human amylin receptor (calcitonin receptor co-expressed with receptor activity modifying protein, RAMP3) (hAMYR3) (Homo sapiens, UniProt O60896+P30988); assay: cAMP production in 1321N1 cells with stable recombinant expression of human amylin receptor (hAMYR3); type: cell-based; settings: for Ratio (selectivity hAMYR vs hCTR, ratio of EC50 values at the two receptors): EC50 hCTR / EC50 hAMYR3; for EC50: cAMP, 1321N1 cells, assay buffer with 0.1% BSA, read-out: EC50 (pM) hAMYR3
T1 construct: expressed in transfected cells
T1 sequence (P30988 25-474): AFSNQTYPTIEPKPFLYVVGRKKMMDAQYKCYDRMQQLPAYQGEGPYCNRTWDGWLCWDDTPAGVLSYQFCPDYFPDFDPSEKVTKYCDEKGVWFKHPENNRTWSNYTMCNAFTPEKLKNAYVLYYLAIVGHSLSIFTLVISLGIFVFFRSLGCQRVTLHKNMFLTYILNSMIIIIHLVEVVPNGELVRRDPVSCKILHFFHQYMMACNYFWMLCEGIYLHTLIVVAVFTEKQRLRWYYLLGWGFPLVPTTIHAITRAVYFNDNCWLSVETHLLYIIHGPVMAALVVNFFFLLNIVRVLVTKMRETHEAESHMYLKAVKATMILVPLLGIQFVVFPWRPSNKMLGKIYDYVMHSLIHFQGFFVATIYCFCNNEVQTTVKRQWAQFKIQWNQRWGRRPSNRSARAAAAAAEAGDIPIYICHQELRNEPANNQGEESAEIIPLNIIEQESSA
T1 sequence (O60896 24-148 partner): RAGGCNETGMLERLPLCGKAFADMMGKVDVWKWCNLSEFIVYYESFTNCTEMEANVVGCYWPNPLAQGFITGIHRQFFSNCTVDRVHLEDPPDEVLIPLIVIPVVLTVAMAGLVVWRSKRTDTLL
Outline: (§1)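 Thawed cells in HBSS/0.1% BSA/25 mM HEPES pH 7.4 with 0.5 mM IBMX were incubated with peptides 30 min at room temperature; cAMP read by HTRF. EC50 from 4-parameter fit of % activation relative to maximal amylin or calcitonin effect.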

[3] = target: T2, rat amylin receptor (calcitonin receptor co-expressed with receptor activity modifying protein, RAMP3) (Rat AMYR3) (Rattus norvegicus, UniProt P32214+Q9JJ73); assay: cAMP production in HEK cells with stable recombinant expression of rat amylin receptor (Rat AMYR3); type: cell-based; settings: assay buffer with 0.1% BSA
T2 construct: expressed in transfected cells
T2 sequence (P32214 25-516): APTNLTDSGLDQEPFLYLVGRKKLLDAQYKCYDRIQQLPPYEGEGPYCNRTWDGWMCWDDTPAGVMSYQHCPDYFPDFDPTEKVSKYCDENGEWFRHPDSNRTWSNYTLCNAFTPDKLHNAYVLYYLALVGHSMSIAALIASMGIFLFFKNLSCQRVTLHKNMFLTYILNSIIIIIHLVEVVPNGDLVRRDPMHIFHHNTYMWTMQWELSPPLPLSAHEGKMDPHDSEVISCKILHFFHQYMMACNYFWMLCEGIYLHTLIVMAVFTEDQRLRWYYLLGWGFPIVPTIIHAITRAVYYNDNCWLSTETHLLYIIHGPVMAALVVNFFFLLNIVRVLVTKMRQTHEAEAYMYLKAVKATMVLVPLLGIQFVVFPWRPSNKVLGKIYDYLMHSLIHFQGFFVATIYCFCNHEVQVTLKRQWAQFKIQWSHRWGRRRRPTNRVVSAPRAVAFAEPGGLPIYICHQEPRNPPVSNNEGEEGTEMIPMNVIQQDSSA
T2 sequence (Q9JJ73 23-147 partner): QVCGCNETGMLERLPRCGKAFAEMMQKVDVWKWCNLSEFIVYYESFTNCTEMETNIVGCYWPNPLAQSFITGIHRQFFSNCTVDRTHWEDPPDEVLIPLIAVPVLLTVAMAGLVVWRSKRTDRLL
Protocol: (§2) The functional activities of lipidated pramlintide analogue peptides, such as cAMP production, were tested in 1321N1 cell line with stable recombinant expression of human calcitonin receptor (hCTR) or human amylin receptor (calcitonin receptor co-expressed with receptor activity modifying protein, RAMP3) (hAMYR3) or HEK cells with stable recombinant expression of rat calcitonin receptor (rat CTR) or rat amylin receptor (calcitonin receptor co-expressed with receptor activity modifying protein, RAMP3) (Rat AMYR3).
(§3) Cryopreserved cell stock was thawed rapidly in a water-bath, suspended in assay buffer (0.1% BSA (Sigma # A3059) in HBSS (Sigma # H8264) with 25 mM HEPES, pH 7.4 and containing 0.5 mM IB MX (Sigma# 17018)) and spun at 240×g for 5 minutes. Cells were re-suspended in assay buffer at a batch-dependent optimized concentration (e.g. hCTR cells at 0.125×10^5 cells/mL, hAMYR3 cells at 0.125×10^5 cells/mL, rat CTR cells at 1x10^5 cells/mL, rat AMYR3 at 2×10^5 cells/mL).
(§4) The test peptide stock was prepared in DMSO and diluted in assay buffer to reach stated concentrations and transferred in duplicates into a 384-black shallow well microtitre assay plate (Corning # 3676). Cells were added to the assay plate, incubated at room temperature for 30 minutes and the cAMP level measured using cAMP dynamic 2 HTRF kit (Cisbio, Cat # 62AM4PEJ), following the two step protocol as per manufacturer's recommendations. The plates were read on an Envision (Perkin Elmer) using excitation wavelength of 320 nm and emission wavelengths of 620nm & 665 nm.
(§5) Data was transformed to % Delta F as described in the manufacturer's guidelines and analyzed as percent activation of maximal amylin or calcitonin effect by 4-parameter logistic fit to determine EC50 values. The selectivity of a peptide to hAMYR vs hCTR is defined as a ratio of EC50 values at the two receptors.

[4] = target: T3, human calcitonin receptor (hCTR) (Homo sapiens, UniProt P30988); assay: cAMP production in 1321N1 cells with stable recombinant expression of human calcitonin receptor (hCTR); type: cell-based; settings: cAMP, 1321N1 cells, assay buffer with 0.1% BSA; read-out: EC50 (pM) hCTR
T3 construct: expressed in transfected cells
T3 sequence (P30988 25-474): T1 sequence (P30988 25-474)
Outline: as §1

[5] = target: T4, rat calcitonin receptor (rat CTR) (Rattus norvegicus, UniProt P32214); assay: cAMP production in HEK cells with stable recombinant expression of rat calcitonin receptor (rat CTR); type: cell-based; settings: assay buffer with 0.1% BSA
T4 construct: expressed in transfected cells
T4 sequence (P32214 25-516): T2 sequence (P32214 25-516)
Protocol: as §2, §3, §4, §5

[6] = Thioflavin T fibrillation assay; type: physicochemical; settings: ThT fibrillation assay; peptide 1 mg/mL in 25 mM sodium acetate buffer pH 4.0; 6 days at 37 °C with shaking; >144 h = no increase
Outline: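 Peptides at 1 mg/mL in 25 mM sodium acetate pH 4.0 with ThT (from 0.25 mM stock), incubated 6 days at 37 °C with intermittent orbital shaking at 500–750 rpm. Fluorescence (ex 444/em 480 nm) read every 30 min; value is average time to a rise in baseline-corrected signal.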

[7] = Pharmacokinetic determination via IV and SC administration in Sprague Dawley rats; settings: male, rat, plasma, 20 nmol/kg

| SMILES | Cummulative food intake (% vehicle treated intake) At 12 h ([1]; at 12 h) | Cummulative food intake (% vehicle treated intake) At 24 h ([1]; at 24 h) | Cummulative food intake (% vehicle treated intake) At 48 h ([1]; at 48 h) | Ratio (selectivity hAMYR vs hCTR, ratio of EC50 values at the two receptors) [2] | EC50 [2] | EC50 [3] | EC50 [4] | EC50 [5] | Time taken to detect increase in fluorescence intensity [6] | half-life ([7]; iv) | half-life ([7]; sc) |
| --- | --- | --- | --- | --- | --- | --- | --- | --- | --- | --- | --- |
| CC[C@H](C)[C@H](NC(=O)[C@@H]1CCCN1C(=O)CNC(=O)[C@H](Cc1ccccc1)NC(=O)[C@H](CC(N)=O)NC(=O)[C@H](CC(N)=O)NC(=O)[C@H](CO)NC(=O)[C@H](CO)NC(=O)[C@H](Cc1c[nH]cn1)NC(=O)[C@H](CCCNC(=N)N)NC(=O)[C@H](CC(C)C)NC(=O)[C@H](Cc1ccccc1)NC(=O)[C@H](CCC(=O)O)NC(=O)[C@H](C)NC(=O)[C@H](CC(C)C)NC(=O)[C@H](CCCNC(=N)N)NC(=O)[C@H](CCC(N)=O)NC(=O)[C@@H](NC(=O)[C@H](C)NC(=O)[C@@H]1CSSC[C@H](NC(=O)[C@@H](N)CCCCNC(=O)CC[C@H](NC(=O)CC[C@H](NC(=O)CCCCCCCCCCCCCCCCCCC(=O)O)C(=O)O)C(=O)O)C(=O)N[C@@H](CC(N)=O)C(=O)N[C@@H]([C@@H](C)O)C(=O)N[C@@H](C)C(=O)N[C@@H]([C@@H](C)O)C(=O)N1)[C@@H](C)O)C(=O)N[C@@H](CC(C)C)C(=O)N1CCC[C@H]1C(=O)N1CCC[C@H]1C(=O)N[C@H](C(=O)N[C@@H](CC(N)=O)C(=O)N[C@H](C(=O)NCC(=O)N[C@@H](CO)C(=O)N[C@@H](CC(N)=O)C(=O)N[C@H](C(=O)N[C@@H](Cc1ccc(O)cc1)C(N)=O)[C@@H](C)O)C(C)C)[C@@H](C)O [Peptide 116] (H-K([γGlu-γGlu-C20 diacid])CNTATCATQRLAEFLRHSSNNFGPILPPTNVGSNTY-NH2; disulfide 2-7) | 51.7 % vehicle treated intake | 43.1 % vehicle treated intake | 50.2 % vehicle treated intake | 8 | 1210 pM | 23.7 pM | 9560 pM | 9050 pM | – | – | – |
| CC[C@H](C)[C@H](NC(=O)[C@@H]1CCCN1C(=O)CNC(=O)[C@H](Cc1ccccc1)NC(=O)[C@H](CC(N)=O)NC(=O)C(C)(C)NC(=O)[C@H](CO)NC(=O)[C@H](CO)NC(=O)[C@H](Cc1c[nH]cn1)NC(=O)[C@H](CCCNC(=N)N)NC(=O)[C@H](CC(C)C)NC(=O)[C@H](Cc1ccccc1)NC(=O)[C@H](CC(N)=O)NC(=O)[C@H](C)NC(=O)[C@H](CC(C)C)NC(=O)[C@H](CCCNC(=N)N)NC(=O)[C@H](CCC(N)=O)NC(=O)[C@@H](NC(=O)[C@H](C)NC(=O)[C@@H]1CSSC[C@H](NC(=O)[C@H](CCCCN)NC(=O)[C@@H](N)CCCCNC(=O)CC[C@H](NC(=O)CC[C@H](NC(=O)CCCCCCCCCCCCCCCCC(=O)O)C(=O)O)C(=O)O)C(=O)N[C@@H](CC(N)=O)C(=O)N[C@@H]([C@@H](C)O)C(=O)N[C@@H](C)C(=O)N[C@@H]([C@@H](C)O)C(=O)N1)[C@@H](C)O)C(=O)N[C@@H](CC(C)C)C(=O)N1CCC[C@H]1C(=O)N1CCC[C@H]1C(=O)N[C@H](C(=O)N[C@@H](CC(N)=O)C(=O)N[C@H](C(=O)NCC(=O)N[C@@H](CO)C(=O)N[C@@H](CC(N)=O)C(=O)N[C@H](C(=O)N[C@@H](Cc1ccc(O)cc1)C(N)=O)[C@@H](C)O)C(C)C)[C@@H](C)O [Peptide 66, K(γE-γE-C18diacid)K[CNTATC]ATQRLANFLRHSS(Aib)NFGPILPPTNVGSNTY-amide] (H-K([γGlu-γGlu-C18 diacid])KCNTATCATQRLANFLRHSS[Aib]NFGPILPPTNVGSNTY-NH2; disulfide 3-8) | – | – | – | 17 | 418 pM | – | 7010 pM | – | >144 h | 9.4 h | 12.2 h |
